Assays:
[1] = Biodistribution of the mixture of three free tracers (not formulated as nano-emulsion), comparative; assay type: in vivo; settings: FVB female mouse
Experimental: (§1) In the following examples, the radioactivity was counted with the TRiCarb Counter (Ref: Packard, Liquid Scintillation Analyzers; Models 2200CA).
(§2) Fluobeam 700 (Fluoptics) is the apparatus with which the whole of the organs from the biodistribution were analyzed in fluorescence as well as the one with which the biodistribution kinetics of the nano-emulsions were established in vivo. This imaging system allows viewing of the fluorescence in spectral bands from 700 to 850 nm for a 650 nm excitation. The apparatus consists of an electric case containing the laser of class 3B, its power supply and an optical head containing the CCD camera.
As a comparison, a mixture of three tracers ([3H]CHE, [14C]CO and DiD) (not formulated as a nano-emulsion) was injected in order to observe the distribution of the tracers in the absence of droplets being used as a distribution carrier.

[2] = Biodistribution of the nano-emulsion of Example 1.1 (radioactivity and fluorescence per organ); assay type: in vivo
Experimental: as §1, §2
The nano-emulsions of Example 1 were injected into FVB female and male mice. As a comparison, a mixture of three tracers ([3H]CHE, [14C]CO and DiD) (not formulated as a nano-emulsion) was injected in order to observe the distribution of the tracers in the absence of droplets being used as a distribution carrier.
Tables 6 to 14 provide the biodistribution results of each tracer ([3H]CHE, [14C]CO and DiD) expressed as a percentage of the dose injected per gram of tissue (or [3H]CHE and [14C]CO) or as fluorescence intensity (for DiD) depending on the organ of the mouse, 15 minutes (Table 6), 2 hours (Table 7), 4 hours (Table 8), 6 hours (Table 9), 16 hours (Table 10), 24 hours (Table 11), 72 hours (Table 12), 120 hours (Table 13) and 168 hours (Table 14), after injection into an FVB female mouse of the nano-emulsion of Example 1.1. (nano-emulsion according to the invention comprising the three tracers ([3H]CHE, [14C]CO and DiD).

[3] = 2 h after injection of free tracers (not nano-emulsion)
[4] = 6 h after injection of free tracers (not nano-emulsion)
[5] = 16 h after injection of free tracers (not nano-emulsion)
[6] = 24 h after injection of free tracers (not nano-emulsion)
[7] = 15 min after injection of nano-emulsion of Example 1.1, FVB female mouse
[8] = 2 h after injection of nano-emulsion of Example 1.1, FVB female mouse

CCCCCCCC/C=C\CCCCCCC[14C](=O)O[C@H]1CC[C@@]2(C)C(=CC[C@H]3[C@@H]4CC[C@H]([C@H](C)CCCC(C)C)[C@@]4(C)CC[C@@H]32)C1 [[14C]CO, cholesteryl oleate]
biodistribution, Adrenal glands (MEAN) [1, 3]: 3.25 % of injected dose per gram of
biodistribution, Brain (MEAN) [1, 3]: 0.23 % of injected dose per gram of
biodistribution, Fat (MEAN) [1, 3]: 0.69 % of injected dose per gram of
biodistribution, Heart (MEAN) [1, 3]: 0.59 % of injected dose per gram of
biodistribution, Intestine (MEAN) [1, 3]: 0.76 % of injected dose per gram of
biodistribution, Kidney (MEAN) [1, 3]: 0.89 % of injected dose per gram of
biodistribution, Liver (MEAN) [1, 3]: 4.79 % of injected dose per gram of
biodistribution, Lung (MEAN) [1, 3]: 72.86 % of injected dose per gram of
biodistribution, Muscle (MEAN) [1, 3]: 0.38 % of injected dose per gram of
biodistribution, Ovary (MEAN) [1, 3]: 1.57 % of injected dose per gram of
biodistribution, Pancreas (MEAN) [1, 3]: 0.47 % of injected dose per gram of
biodistribution, Salivary gland (MEAN) [1, 3]: 0.74 % of injected dose per gram of
biodistribution, Spleen (MEAN) [1, 3]: 3.65 % of injected dose per gram of
biodistribution, Uterus (MEAN) [1, 3]: 0.49 % of injected dose per gram of
biodistribution, Adrenal glands (MEAN) [1, 4]: 3.56 % of injected dose per gram of
biodistribution, Brain (MEAN) [1, 4]: 0.26 % of injected dose per gram of
biodistribution, Fat (MEAN) [1, 4]: 1.05 % of injected dose per gram of
biodistribution, Heart (MEAN) [1, 4]: 1.21 % of injected dose per gram of
biodistribution, Intestine (MEAN) [1, 4]: 1.21 % of injected dose per gram of
biodistribution, Kidney (MEAN) [1, 4]: 1.36 % of injected dose per gram of
biodistribution, Liver (MEAN) [1, 4]: 5.53 % of injected dose per gram of
biodistribution, Lung (MEAN) [1, 4]: 142.66 % of injected dose per gram of
biodistribution, Muscle (MEAN) [1, 4]: 0.53 % of injected dose per gram of
biodistribution, Ovary (MEAN) [1, 4]: 2.12 % of injected dose per gram of
biodistribution, Pancreas (MEAN) [1, 4]: 0.76 % of injected dose per gram of
biodistribution, Salivary gland (MEAN) [1, 4]: 1.15 % of injected dose per gram of
biodistribution, Spleen (MEAN) [1, 4]: 3.53 % of injected dose per gram of
biodistribution, Uterus (MEAN) [1, 4]: 0.46 % of injected dose per gram of
biodistribution, Adrenal gland (MEAN) [1, 5]: 4.24 % of injected dose per gram of
biodistribution, Brain (MEAN) [1, 5]: 0.30 % of injected dose per gram of
biodistribution, Fat (MEAN) [1, 5]: 1.39 % of injected dose per gram of
biodistribution, Heart (MEAN) [1, 5]: 1.87 % of injected dose per gram of
biodistribution, Intestine (MEAN) [1, 5]: 1.09 % of injected dose per gram of
biodistribution, Kidney (MEAN) [1, 5]: 1.82 % of injected dose per gram of
biodistribution, Liver (MEAN) [1, 5]: 11.86 % of injected dose per gram of
biodistribution, Lung (MEAN) [1, 5]: 261.87 % of injected dose per gram of
biodistribution, Muscle (MEAN) [1, 5]: 0.43 % of injected dose per gram of
biodistribution, Ovary (MEAN) [1, 5]: 1.64 % of injected dose per gram of
biodistribution, Pancreas (MEAN) [1, 5]: 1.00 % of injected dose per gram of
biodistribution, Salivary gland (MEAN) [1, 5]: 1.29 % of injected dose per gram of
biodistribution, Spleen (MEAN) [1, 5]: 5.32 % of injected dose per gram of
biodistribution, Uterus (MEAN) [1, 5]: 1.00 % of injected dose per gram of
biodistribution, Adrenal gland (MEAN) [1, 6]: 2.60 % of injected dose per gram of
biodistribution, Brain (MEAN) [1, 6]: 0.22 % of injected dose per gram of
biodistribution, Fat (MEAN) [1, 6]: 1.64 % of injected dose per gram of
biodistribution, Heart (MEAN) [1, 6]: 0.82 % of injected dose per gram of
biodistribution, Intestine (MEAN) [1, 6]: 0.81 % of injected dose per gram of
biodistribution, Kidney (MEAN) [1, 6]: 1.02 % of injected dose per gram of
biodistribution, Liver (MEAN) [1, 6]: 3.29 % of injected dose per gram of
biodistribution, Lung (MEAN) [1, 6]: 29.91 % of injected dose per gram of
biodistribution, Muscle (MEAN) [1, 6]: 0.79 % of injected dose per gram of
biodistribution, Ovary (MEAN) [1, 6]: 1.40 % of injected dose per gram of
biodistribution, Pancreas (MEAN) [1, 6]: 0.95 % of injected dose per gram of
biodistribution, Salivary gland (MEAN) [1, 6]: 0.86 % of injected dose per gram of
biodistribution, Spleen (MEAN) [1, 6]: 2.27 % of injected dose per gram of
biodistribution, Uterus (MEAN) [1, 6]: 0.62 % of injected dose per gram of
accumulation of the free radioactive tracers in the lungs ([1]; Tables 2 to 5 (2 to 24 h), free tracers): strong accumulation
biodistribution, Adrenal glands (MEAN) [2, 7]: 10.18 % of injected dose per gram of
biodistribution, Brain (MEAN) [2, 7]: 0.499 % of injected dose per gram of
biodistribution, Fat (MEAN) [2, 7]: 1.15 % of injected dose per gram of
biodistribution, Heart (MEAN) [2, 7]: 8.676 % of injected dose per gram of
biodistribution, Intestine (MEAN) [2, 7]: 1.75 % of injected dose per gram of
biodistribution, Kidney (MEAN) [2, 7]: 4.20 % of injected dose per gram of
biodistribution, Liver (MEAN) [2, 7]: 8.86 % of injected dose per gram of
biodistribution, Lung (MEAN) [2, 7]: 3.92 % of injected dose per gram of
biodistribution, Muscle (MEAN) [2, 7]: 0.744 % of injected dose per gram of
biodistribution, Ovary (MEAN) [2, 7]: 4.59 % of injected dose per gram of
biodistribution, Pancreas (MEAN) [2, 7]: 1.262 % of injected dose per gram of
biodistribution, Salivary glands (MEAN) [2, 7]: 1.057 % of injected dose per gram of
biodistribution, Spleen (MEAN) [2, 7]: 3.58 % of injected dose per gram of
biodistribution, Uterus (MEAN) [2, 7]: 0.93 % of injected dose per gram of
biodistribution, Adrenal glands (MEAN) [2, 8]: 18.50 % of injected dose per gram of
biodistribution, Brain (MEAN) [2, 8]: 0.29 % of injected dose per gram of
biodistribution, Fat (MEAN) [2, 8]: 3.85 % of injected dose per gram of
biodistribution, Heart (MEAN) [2, 8]: 4.41 % of injected dose per gram of
biodistribution, Intestine (MEAN) [2, 8]: 2.33 % of injected dose per gram of
biodistribution, Kidneys (MEAN) [2, 8]: 3.91 % of injected dose per gram of
biodistribution, Liver (MEAN) [2, 8]: 19.41 % of injected dose per gram of

Reference: US9707305B2, “Formulas for diagnosing and treating hormone-dependent cancers and cancers of the organs responsible for steroid hormone synthesis” (Commissariat à l'énergie atomique et aux énergies …, priority 2011, dated 2017)
